Here are results for three compounds from US20240391862A1, “(1,4,5-TRISUBSTITUTED-1H-PYRAZOL-3-YL)OXY-2-ALKOXY ALKYL ACIDS AND THEIR DERIVATIVES, THEIR SALTS AND THEIR USE AS HERBICIDAL AGENTS” (Bayer AKtiengesellschaft, priority 2021, published 2024).

One experiment deals with various unwanted plants. The experiment in a line: Post-emergence effect against various unwanted plants (PO): comparative test of I-01 with compounds from WO2020/245044 (Tables 41a, 41b) and summary statements. Type of experiment: in vivo. The note with it: for Post-emergence effect, Effect %, ALOMY / Post-emergence effect, Effect %, AVEFA / Post-emergence effect, Effect %, ECHCG / Post-emergence effect, Effect %, LOLRI / Post-emergence effect, Effect %, SETVI: comparative test. As to the method:
Seeds of monocotyledonous and dicotyledonous weeds and crop plants are placed in sandy loam in plastic or organic planting pots, covered with soil and cultivated in a greenhouse under controlled growth conditions. 2 to 3 weeks after sowing, the trial plants are treated at the one-leaf stage. The compounds of the invention, formulated in the form of wettable powders (WP) or as emulsion concentrates (EC), are then sprayed onto the green parts of the plants as aqueous suspension or emulsion with addition of 0.5% additive at a water application rate of 600 l/ha (converted). After the test plants have been kept in the greenhouse under optimum growth conditions for about 3 weeks, the activity of the preparations is rated visually in comparison to untreated controls. For example, 100% activity=the plants have died, 0% activity=like control plants. […] Tables 41a and 41b below show the effects of the inventive compound (I-01) with structurally similar compounds (WO2020/245044) on various harmful plants at an application rate corresponding to 320 g/ha or less, which have been obtained by the trial procedure specified hereinafter. The inventive compound (I-01) differs here by variance of a significant structural feature from the structurally similar compound with regard to the R^2 radical. Seeds of monocotyledonous and dicotyledonous weeds and crop plants are placed in sandy loam in plastic or organic planting pots, covered with soil and cultivated in a greenhouse under controlled growth conditions. 2 to 3 weeks after sowing, the trial plants are treated at the one-leaf stage. The compounds of the invention, formulated in the form of wettable powders (WP) or as emulsion concentrates (EC), are then sprayed onto the green parts of the plants as aqueous suspension or emulsion with addition of 0.5% additive at a water application rate of 600 l/ha (converted). After the test plants have been kept in the greenhouse under optimum growth conditions for about 3 weeks, the activity of the preparations is rated visually in comparison to untreated controls. For example, 100% activity=the plants have died, 0% activity=like control plants. Effects/crop compatibilities of selected compounds (see Table 39) on various harmful plants at an application rate corresponding to 80 to 320 g/ha that have been obtained by the trial procedure specified hereinafter are shown in Tables 41a and 41b below.

For the next experiment, the system named is ABUTH. As to the kind of experiment: Pre-emergence herbicidal effect, greenhouse pot test. The experiment is classed as in vivo, Abutilon theophrasti. The note with it: 320 g/ha, scored visually after about 3 weeks vs untreated controls. The source says: Seeds of monocotyledonous and dicotyledonous weed plants and crop plants are placed in plastic or organic planting pots and covered with soil. The compounds of the invention, formulated in the form of wettable powders (WP) or as emulsion concentrates (EC), are then applied to the surface of the covering soil as aqueous suspension or emulsion with addition of 0.5% additive at a water application rate equivalent to 600 l/ha. After the treatment, the pots are placed in a greenhouse and kept under good growth conditions for the trial plants. After about 3 weeks, the effect of the preparations is scored visually in comparison with untreated controls as percentages. For example, 100% activity=the plants have died, 0% activity=like control plants.
Tables 1a to 19c below show the effects/crop compatibilities of selected compounds of the general formula (I) on various harmful plants at an application rate corresponding to 20 to 320 g/ha, which were obtained by the trial procedure specified above.
• ALOMY: Alopecurus myosuroides SETVI: Setaria viridis • AVEFA: Avena fatua POLCO: Fallopia convolvulus • AMARE: Amaranthus retroflexus ECHCG: Echinochloa crus-galli • LOLRJ: Lolium rigidum STEME: Stellaria media • VERPE: Veronica persica MATIN: Tripleurospermum inodorum • DIGSA: Digitaria sanguinalis ABUTH: Abutylon threophrasti • TRZAS: Triticum aestivum VIOTR: Viola tricolor • BRSNW: Brassica napus ZEAMX: Zea mays • PHBPU: Ipomoea purpurea GLXMA: Glycine max • ORYSA: Oryza sativa HORMU: Hordeum murinum

The subject of a further experiment is ZEAMX. The experiment in a line: Post-emergence herbicidal effect and crop plant compatibility, greenhouse pot test. Type of experiment: in vivo, Zea mays. The note with it: Zea mays, 504 h, 80 g/ha, one-leaf stage, rated visually after about 3 weeks vs untreated controls, read-out: Post-emergence effect at 80 g/ha against ZEAMX in %. The method, boiled down: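 Sandy loam pots, greenhouse. One-leaf stage (2–3 wk after sowing) foliar spray; WP/EC in water + 0.5% additive, 600 l/ha; 20–320 g/ha. Visual score ~3 wk, 0–100% vs untreated.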

Consider `CCOC(=O)C(OCC)Oc1nn(-c2ccccc2F)c(-c2ccc(F)nc2)c1Br` (racemic) [Example I-01, Ethyl (2RS)-{[4-bromo-1-(2-fluorophenyl)-5-(6-fluoropyridin-3-yl)-1H-pyrazol-3-yl]oxy}(ethoxy)acetate], for which, in the experiment on various unwanted plants (80 g/ha), the “Post-emergence effect, Effect %, ALOMY” value was determined as 90%; the “Post-emergence effect, Effect %, AVEFA” value came to 90%; the “Post-emergence effect, Effect %, ECHCG” value was 90%; the “Post-emergence effect, Effect %, LOLRI” value stood at 70%. The “Post-emergence effect, Effect %, SETVI” value in the experiment on various unwanted plants (80 g/ha) worked out at 90%. Also, in the experiment with various unwanted plants (320 g/ha), the “Post-emergence effect, Effect %, ALOMY” value stood at 100%; the “Post-emergence effect, Effect %, AVEFA” value is recorded as 90%; the “Post-emergence effect, Effect %, ECHCG” value turned out to be 90%; the “Post-emergence effect, Effect %, LOLRI” value came out at 90%. The “Post-emergence effect, Effect %, SETVI” value in the experiment with various unwanted plants (320 g/ha) is reported as 90%. Besides, the “herbicidal efficacy by comparison to the structurally similar compounds (Tables 41a and 41b)” value in the experiment with various unwanted plants (different harmful plants, 320 g or less per hectare, vs compounds from WO2020/245044) is recorded as “distinctly improved herbicidal efficacy”.

As for `COC(=O)C(OC)Oc1nn(-c2ccccc2F)c(-c2ccc(F)nc2)c1Br` (racemic) [Example I-04, Methyl (2RS)-{[4-bromo-1-(2-fluorophenyl)-5-(6-fluoropyridin-3-yl)-1H-pyrazol-3-yl]oxy}(methoxy)acetate], the “Pre-emergence effect at 320 g/ha against ABUTH in %” value with ABUTH is 80%.

In the case of `COC(=O)C(OC)Oc1nn(-c2ncccc2F)c(-c2ccc(F)nc2)c1Br` (stereo not shown) [Example I-05], in the experiment with ZEAMX, the plant injury at 80 g/ha turned out to be 20%.
